In ChEMBL document CHEMBL1123458, “2-Phenylindenes: development of a new mammary tumor inhibiting antiestrogen by combination of estrogenic side effect lowering structural elements” (1986) one finds RBA, inhibition and Effect data, which are given here for five molecules.

For assay [1], the target named is Estrogen receptor (Bos taurus) (UniProt Q9XSB5+P49884). Put plainly: Inhibition of [3H]estradiol binding to calf uterine estrogen receptor. It is filed as protein assay.
Assay [2] concerns the target T1, Estrogen receptor (Mus musculus) (UniProt O08537+P19785). The experiment in a line: Anti-uterotrophic effect in immature mice at 1.0 ug. It is filed as functional.
Assay [3] has as its target T1, Estrogen receptor (Mus musculus). Put plainly: Anti-uterotrophic effect in mice at 25 ug. It counts as functional.
Assay [4] shares this target. Put plainly: Anti-uterotrophic effect in mice at 1.0 ug. It is filed as functional.
Assay [5] has the same target. The experiment in a line: Anti-uterotrophic effect in mice at 5 ug. It is filed as functional.
Assay [6] shares this target. The experiment in a line: Anti-uterotrophic effect in mice at 100 ug. It counts as functional.
The target is the same in assay [7]. The experiment in a line: Anti-uterotrophic effect in immature mice at 25 ug. It is filed as functional.
Assay [8] has the same target. Put plainly: Anti-uterotrophic effect in immature mice at 5 ug. It counts as functional.
Assay [9] has the same target. Put plainly: Anti-uterotrophic effect in immature mice at 100 ug. It counts as functional.

T1 sequence (O08537 whole entry, looked up): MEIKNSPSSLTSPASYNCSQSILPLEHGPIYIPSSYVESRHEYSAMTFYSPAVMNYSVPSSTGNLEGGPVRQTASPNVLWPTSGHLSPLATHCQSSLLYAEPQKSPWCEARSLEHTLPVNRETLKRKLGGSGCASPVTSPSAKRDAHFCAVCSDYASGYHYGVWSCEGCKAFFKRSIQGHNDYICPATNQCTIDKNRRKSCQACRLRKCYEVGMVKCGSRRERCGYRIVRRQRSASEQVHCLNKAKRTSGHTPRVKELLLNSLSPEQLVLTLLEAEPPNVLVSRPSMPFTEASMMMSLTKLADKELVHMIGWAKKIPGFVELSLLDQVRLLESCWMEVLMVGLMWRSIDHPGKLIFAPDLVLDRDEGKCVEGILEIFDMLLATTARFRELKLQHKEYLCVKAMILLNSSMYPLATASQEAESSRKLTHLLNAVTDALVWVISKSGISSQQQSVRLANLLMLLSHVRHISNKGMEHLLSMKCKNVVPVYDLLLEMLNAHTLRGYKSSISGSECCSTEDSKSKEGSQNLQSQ
T1 sequence (P19785 whole entry, looked up): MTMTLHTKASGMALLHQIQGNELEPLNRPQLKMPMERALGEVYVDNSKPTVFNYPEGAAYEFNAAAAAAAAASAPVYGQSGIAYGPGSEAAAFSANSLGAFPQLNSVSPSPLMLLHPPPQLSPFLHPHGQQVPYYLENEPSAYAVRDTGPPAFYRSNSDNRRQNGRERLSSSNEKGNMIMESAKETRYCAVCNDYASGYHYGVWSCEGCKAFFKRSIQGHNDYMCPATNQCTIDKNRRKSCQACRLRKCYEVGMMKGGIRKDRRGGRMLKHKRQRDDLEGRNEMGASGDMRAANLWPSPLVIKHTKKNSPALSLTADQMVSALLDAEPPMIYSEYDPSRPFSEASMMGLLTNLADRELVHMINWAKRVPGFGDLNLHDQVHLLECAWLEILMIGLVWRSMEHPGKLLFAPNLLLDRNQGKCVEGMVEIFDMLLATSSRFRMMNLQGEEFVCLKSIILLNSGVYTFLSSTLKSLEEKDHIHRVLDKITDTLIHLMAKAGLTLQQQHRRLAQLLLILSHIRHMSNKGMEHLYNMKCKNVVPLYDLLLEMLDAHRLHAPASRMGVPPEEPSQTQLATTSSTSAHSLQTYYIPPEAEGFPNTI

A word on the inhibition: it is how much of the control response was suppressed. Low readings indicate a response near the control, high ones a response far below the control. Turning to `CC/C(=C(/CC)c1ccc(C(C)=O)c(C(C)=O)c1)c1ccc(C(C)=O)c(C(C)=O)c1`, the RBA in assay [1] was found to be 1%. Besides, the inhibition in assay [2] turned out to be 31%; in [7], 8%; in assay [8], 54%; in assay [9], 5%. The Effect in [3] was 40.4 mg 100g-1; in assay [4] it was 33.8 mg 100g-1; in [5], 27.4 mg 100g-1; in [6], 41.3 mg 100g-1.
In assay [1], `CC(=O)c1cccc(C2=C(C(C)C)c3cc(C(C)=O)ccc3C2(C)C)c1` yielded an RBA of 2%. For the same molecule, the inhibition in [2] was 21%; in assay [7], 0%. Further, the Effect in assay [3] turned out to be 44.7 mg 100g-1; in assay [4], 30.3 mg 100g-1.
In turn, `CC/C(=C(/CC)c1cccc(C(C)=O)c1)c1cccc(C(C)=O)c1` displayed an RBA in assay [1] of 2.2%.
On to `CCC1=C(c2cccc(C(C)=O)c2)C(C)c2ccc(C(C)=O)cc21` (configuration not stated), for which, in [1], the RBA worked out at 1.8%. Also, the inhibition amounted to 48% in assay [2], 9% in assay [7] and 30% in assay [8]. Moreover, the Effect is 40.2 mg 100g-1 in [3], 30.1 mg 100g-1 in assay [4] and 34.8 mg 100g-1 in [5].
With `CC(=O)c1ccc(C2=C(C(C)C)c3cc(C(C)=O)c(C(C)=O)cc3C2(C)C)cc1C(C)=O`, the RBA in assay [1] is 1.7%. The inhibition in assay [2] amounted to 28%; in assay [7], 11%. Further, the Effect in assay [3] is 32.5 mg 100g-1; in [4], 29 mg 100g-1.
